The values below come from patent US11806326B2, “Methods for dopamine modulation in human neurologic diseases” (priority 2018, dated 2023).

Read-outs that look alike come from different tables or passages of the source.

Series [1] has as its system tyrosine hydroxylase. To be noted: cited from earlier work.
Series [2] concerns the target T1, tyrosine hydroxylase (Bos taurus, UniProt P17289).
T1 construct: in bovine adrenal gland preparations; from tissue; host or cells: bovine (beef) adrenal gland
T1 sequence (P17289 1-491): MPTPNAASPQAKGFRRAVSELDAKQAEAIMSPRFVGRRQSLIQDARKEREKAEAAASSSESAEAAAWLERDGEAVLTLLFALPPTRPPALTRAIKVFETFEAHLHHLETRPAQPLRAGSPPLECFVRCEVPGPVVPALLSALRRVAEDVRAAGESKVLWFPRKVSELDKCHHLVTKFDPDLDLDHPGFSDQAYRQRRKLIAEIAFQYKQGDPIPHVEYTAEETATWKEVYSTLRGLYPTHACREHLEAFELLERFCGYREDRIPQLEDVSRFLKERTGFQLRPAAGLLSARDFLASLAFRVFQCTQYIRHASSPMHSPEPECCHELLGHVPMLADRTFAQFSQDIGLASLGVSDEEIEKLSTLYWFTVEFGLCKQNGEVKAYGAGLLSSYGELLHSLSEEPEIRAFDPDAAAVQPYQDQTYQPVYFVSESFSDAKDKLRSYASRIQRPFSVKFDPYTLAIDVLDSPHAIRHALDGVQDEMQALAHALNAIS
To be noted: cited from earlier work.

In series [3] the test system is dopaminergic iPS cells originating from DJ-1 homozygous Parkinson's patients. Put plainly: Chronic inhibition of dopamine synthesis in dopaminergic iPS cells from DJ-1 homozygous Parkinson's patients. It is filed as cell-based, human. The note with it: chronic AMPT treatment, FIG. 5.
For series [4] the following is noted: delivered orally, cited from earlier work.
Series [5] concerns the target tyrosine hydroxylase (Homo sapiens, UniProt P07101). To be noted: cited from earlier work.
For series [6], the system named is spontaneously hypertensive rats. The note with it: cited from earlier work.
The mark [7] stands for this setting: Table 1B, concentration 10^−4 M.
Setting [8] is: Table 1A, amino acid analogs inhibiting tyrosine hydroxylase, read-out: Concentration for 50% Inhibition.
[9] abbreviates: Table 1A, concentration 10^−4 M.
Where [10] appears, read: Table 1B, catecholamine analogs inhibiting tyrosine hydroxylase, read-out: Concentration for 50% Inhibition.

tyrosine hydroxylase (Homo sapiens, UniProt P07101), sequence (P07101 whole entry): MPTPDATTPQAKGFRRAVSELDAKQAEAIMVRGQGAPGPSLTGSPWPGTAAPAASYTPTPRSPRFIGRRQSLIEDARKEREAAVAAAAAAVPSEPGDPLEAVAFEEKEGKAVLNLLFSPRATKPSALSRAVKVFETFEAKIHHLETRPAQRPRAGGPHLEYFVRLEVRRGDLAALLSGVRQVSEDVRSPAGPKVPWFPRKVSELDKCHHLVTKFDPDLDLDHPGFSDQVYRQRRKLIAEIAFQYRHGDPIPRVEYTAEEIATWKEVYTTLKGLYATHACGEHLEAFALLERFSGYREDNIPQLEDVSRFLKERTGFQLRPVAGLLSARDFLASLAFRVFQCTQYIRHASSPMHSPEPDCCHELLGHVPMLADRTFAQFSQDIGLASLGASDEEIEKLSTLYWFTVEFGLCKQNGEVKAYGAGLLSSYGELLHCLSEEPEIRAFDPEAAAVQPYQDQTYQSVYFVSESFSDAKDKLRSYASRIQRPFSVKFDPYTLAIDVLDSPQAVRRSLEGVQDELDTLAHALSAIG

For `N[C@@H](Cc1ccc(O)c(O)c1)C(=O)O` [L-dopa], in the series on tyrosine hydroxylase [1] (setting [7]), the “% Inhibition” value is reported as 68%. On to `COc1ccc(CC(C)(N)C(=O)O)cc1Cl` (racemic) [3-chloro-4-methoxy-α-methyl-DL-phenylalanine], for which the IC50 at tyrosine hydroxylase [2] (setting [8]) is 500 µM.

As to `C[C@](N)(Cc1ccc(O)cc1)C(=O)O` [α-methyl-L-tyrosine], in series [3], the “deposition of α-synuclein” value is reported as “blunted deposition of α-synuclein”, the “levels of oxidized dopamine” value is “lower levels of oxidized dopamine” and the oxidative stress entry is recorded as “reduced oxidative stress”. Also, the IC50 on tyrosine hydroxylase [2] (bovine adrenal gland preparations, read-out: concentration inhibiting tyrosine hydroxylase by 50%) was 25 µM. In the series on tyrosine hydroxylase [1] (setting [9]), the “% Inhibition” value is 86%. Also, the “inhibition of tyrosine hydroxylase” value in the series on tyrosine hydroxylase [1] (concentration of 10^−4M, guinea pig brain particle preparations) is 86%. The “metabolites recovered in the urine” value in series [4] (alpha-methyl-dopa, alpha-methyl-dopamine, alpha-methyl-norepinephrine) is on record as “relatively little”. The oral absorption in series [4] was around 69%. For the compound `NC[C@H](O)c1ccc(O)c(O)c1` (racemic) [DL-norepinephrine], the “% Inhibition” value in the series with tyrosine hydroxylase [1] (Table 1B, concentration 2 × 10^−4 M) is given as 53%. For the compound `N[C@@H](Cc1ccc(O)c(O)c1)C(=O)O` [3,4-hydroxy-L-phenylalanine], the IC50 on tyrosine hydroxylase [2] (setting [10]) is 2000 µM. Regarding `CC(N)(Cc1ccc(O)c(I)c1)C(=O)O` (racemic) [3-iodo-α-methyl-DL-tyrosine], the IC50 at tyrosine hydroxylase [2] (setting [8]) was 0.3 µM. Turning to `CNC[C@H](O)c1ccc(O)c(O)c1` [L-epinephrine], in the series on tyrosine hydroxylase [1] (setting [7]), the “% Inhibition” value is reported as 35%. For `N[C@H](Cc1ccccc1)C(=O)O` [D-phenylalanine], on tyrosine hydroxylase [2] (setting [8]), the IC50 is above 1000 µM. Besides, in the series on tyrosine hydroxylase [1] (setting [9]), the “% Inhibition” value is on record as 7%. Turning to `NC(=O)Cc1ccc(O)c(O)c1` [3,4-dihydroxyphenyl-acetamide], on tyrosine hydroxylase [2] (setting [10]), the IC50 is 1000 µM. On to `CC(N)(Cc1cccc(O)c1)C(=O)O` (racemic) [α-methyl-m-DL-tyrosine], for which, on tyrosine hydroxylase [2] (setting [8]), the IC50 was above 1000 µM. The “% Inhibition” value in the series with tyrosine hydroxylase [1] (Table 1A, concentration 2 × 10−4 M) was 92%. As to `N[C@@H](Cc1cc(Br)c(O)c(Br)c1)C(=O)O` [3,5-dibromo -L-tyrosine], the IC50 at tyrosine hydroxylase [2] (setting [8]) is 500 µM.

Turning to `CC(N)(Cc1ccccc1)C(=O)O` (racemic) [α-methyl-DL-phenylalanine], the IC50 at tyrosine hydroxylase [2] (setting [8]) was 80 µM. For `N[C@@H](Cc1ccccc1)C(=O)O` [L-phenylalanine], the IC50 at tyrosine hydroxylase [2] (setting [8]) is 200 µM. Besides, the “% Inhibition” value in the series with tyrosine hydroxylase [1] (setting [9]) is 78%. For the compound `NCCc1ccc(O)c(O)c1` [dopamine], in the series with tyrosine hydroxylase [1] (setting [7]), the “% Inhibition” value was 56%.

In the case of `CCC[C@H]1CCC(=C2C(=O)CCC2=O)O1` [Oudenone, oudenone], the “tyrosine hydroxylase inhibition (in words)” value at tyrosine hydroxylase [5] (directly measured) is listed as “inhibit tyrosine hydroxylase”. Also, the “effect on blood pressure” value in series [6] is reported as “reduce blood pressure”. Turning to `CC(N)(Cc1ccc(O)c(Br)c1)C(=O)O` (racemic) [3-bromo-α-methyl-DL-tyrosine], on tyrosine hydroxylase [2] (setting [8]), the IC50 is 1.5 µM.

Take `CNC[C@H](O)c1ccc(O)c(O)c1` [D-epinephrine]: in the series with tyrosine hydroxylase [1] (setting [7]), the “% Inhibition” value is given as 47%. Take `C[C@@](N)(Cc1ccc(O)c(O)c1)C(=O)O` [α-methyl-3,4-dhydroxy-D-phenylalanine]: the IC50 on tyrosine hydroxylase [2] (setting [10]) is above 8000 µM. Regarding `NC(Cc1ccc(F)cc1)C(=O)O` (racemic) [DL-p-fluoro-phenylalanine], the “% Inhibition” value in the series with tyrosine hydroxylase [1] (setting [9]) is given as 61%. Turning to `N[C@H](Cc1ccc(O)c(O)c1)C(=O)O` [D-dopa], the “% Inhibition” value with tyrosine hydroxylase [1] (setting [7]) is recorded as 0%. Regarding `NC[C@@H](O)c1ccc(O)c(O)c1` [L-norepinephrine], the IC50 on tyrosine hydroxylase [2] (setting [10]) is 1000 µM. For `CC(N)(Cc1ccc(O)c(F)c1)C(=O)O` (racemic) [3-fluoro-α-methyl-DL-tyrosine], the IC50 on tyrosine hydroxylase [2] (setting [8]) is 200 µM. For the compound `CC(N)(Cc1ccc(O)c(Cl)c1)C(=O)O` (racemic) [3-chloro-α-methyl-DL-tyrosine], the IC50 on tyrosine hydroxylase [2] (setting [8]) is 5 µM. As for `N[C@@H](Cc1c[nH]c2ccccc12)C(=O)O` [L-tryptophan], at tyrosine hydroxylase [2] (setting [8]), the IC50 was above 1000 µM. Moreover, the “% Inhibition” value with tyrosine hydroxylase [1] (setting [9]) was 50%. As to `C[C@](N)(Cc1ccc(O)c(O)c1)C(=O)O` [α-methyl-3,4-dhydroxy-L-phenylalanine], the IC50 at tyrosine hydroxylase [2] (setting [10]) was 1500 µM. For the compound `C[C@H]1O[C@@H](c2ccc3c(c2O)C(=O)C2=C(C3=O)[C@@]3(O)C(=O)C[C@](C)(O)C[C@@]3(O)C=C2)C[C@@H](O)[C@@H]1O` [aquayamycin], the “potency as tyrosine hydroxylase inhibitor (in words)” value at tyrosine hydroxylase [5] (compared with 3-iodo-α-methyl-DL-tyrosine) is “near that reported for 3-iodo-α-methyl-DL-tyrosine”. In the case of `N[C@H](Cc1c[nH]c2ccccc12)C(=O)O` [D-tryptophan], the “% Inhibition” value in the series with tyrosine hydroxylase [1] (setting [9]) is reported as 0%.

With `N[C@H](Cc1ccc(O)c(O)c1)C(=O)O` [3,4-hydroxy-D-phenylalanine], the IC50 at tyrosine hydroxylase [2] (setting [10]) is above 4000 µM.

For the compound `CCCC(C(N)=O)c1ccc(O)c(O)c1` (stereo not drawn) [3,4-dihydroxyphenyl-propyl-acetamide], the IC50 on tyrosine hydroxylase [2] (setting [10]) is 20 µM. Moreover, in the series on tyrosine hydroxylase [1] (setting [7]), the “% Inhibition” value was 84%. Turning to `N[C@@H](Cc1ccc(O)c(I)c1)C(=O)O` [3-iodo-L-tyrosine], at tyrosine hydroxylase [2] (setting [8]), the IC50 is 0.5 µM. In the case of `N[C@@H](Cc1ccc(O)c(Cl)c1)C(=O)O` [3-chloro-L-tyrosine], the IC50 at tyrosine hydroxylase [2] (setting [8]) is 10 µM. As to `C[C@@](N)(Cc1ccc(O)cc1)C(=O)O` [α-methyl-D-tyrosine], the IC50 on tyrosine hydroxylase [2] (setting [8]) is above 1000 µM.
